The source of these data is patent US20060189530A1 (Bayer Corporation, priority 1996, published 2006).

Substitutions are numbered along the chain they refer to. “And” between values parts separate entries of the source, which are not always exact repeats. Equal entries are not always repeated. Ends that are not written are not given here.

Assay [1] concerns food intake of Wistar rats. Nature of the assay: In vivo feeding after ICV injection in rats. Also on record: species or system rat. Particulars: for Feeding: ICV, 1-6 nmoles peptide, chow consumed in 2 hours; for Feeding response in rats (in words): in vivo feeding model.
Protocol: Adult male Wistar rats were surgically implanted with a chronic intracerebral ventricular (ICV) cannula (Plastic Products, Roanoke, Va.) using a stereotaxic instrument. Several days after the surgery, 1-6 nmoles of each peptide (or saline) was injected into the lateral ventricle of 4-12 rats in a volume of 5-10 μl. The quantity of rodent chow consumed in a 2 hour period was measured.
Assay [2] addresses T1, rat NPY Y5 receptor (6B clone) (Rattus norvegicus, UniProt Q63634, L61P).
T1 construct: expressed in transfected cells; host or cells: COS-7 (transient), membranes
T1 sequence (Q63634 1-445 L61P): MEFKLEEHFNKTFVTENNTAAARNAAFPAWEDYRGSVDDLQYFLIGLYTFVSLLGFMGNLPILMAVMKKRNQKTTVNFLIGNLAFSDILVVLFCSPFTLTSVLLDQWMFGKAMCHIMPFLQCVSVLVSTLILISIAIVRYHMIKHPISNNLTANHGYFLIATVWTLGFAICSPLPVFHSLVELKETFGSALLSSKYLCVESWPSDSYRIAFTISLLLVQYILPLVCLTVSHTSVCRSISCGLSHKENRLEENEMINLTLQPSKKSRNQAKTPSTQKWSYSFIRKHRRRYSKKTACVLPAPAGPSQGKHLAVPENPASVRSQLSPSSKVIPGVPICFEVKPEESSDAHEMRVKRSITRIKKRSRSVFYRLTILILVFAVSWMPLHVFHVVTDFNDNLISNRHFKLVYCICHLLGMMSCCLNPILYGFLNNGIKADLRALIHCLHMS
Briefly: [125I]PYY competition binding, rat Y5 6B clone transiently expressed in COS-7 membranes. The note with it: transient COS-7 membranes, ± SEM, read-out: NPY Y5 binding affinity Ki, RAT 6B Clone.
Protocol: Cells at 70% confluency were transfected with Y5 DNA using the Lipofectamine method (GIBCO-BRL). 15 μg DNA and 90 μl Lipofectamine were added to each flask. Media was completely replaced 24 hours post transfection, and membranes were harvested 24 hours later.
The media was removed from each flask of transfected cells, and the cells were washed twice with 20 ml ice-cold phosphate buffered saline. The cells were scraped from the flask in 5 ml of Tris buffer (20 mM Tris-HCl and 5 mM EDTA, pH 7.7), and then transferred to a centrifuge tube. Each flask was washed with an additional 5 ml of Tris buffer and combined in the centrifuge tube. The cells were polytroned for 2×10 seconds (12 mm probe, 7000-8000 rpm) and centrifuged 5 minutes (Centra 7R, International Equipment Co., Needham Heights, Mass.) at 800 rpm and 4° C. […] Protein concentration was measured using the Bio-Rad kit pursuant to the standard manufacturer's protocol (Biorad Laboratories, Hercules, Calif.),with bovine IgG as the standard. […]
(§1) After a 2 hour incubation at room temperature with constant mixing, the samples were aspirated on a vacuum manifold. […] The individual wells were punched into 12×75 mm plastic tubes, and counted on a Wallac (Gaithersburg, Md.) gamma counter. Binding data were analyzed using the nonlinear regression curve-fitting program RS/1 (BBN Software Products Corp., Cambridge, Mass.). […]

Assay [3] has as its target T2, human NPY Y5 receptor (Homo sapiens, UniProt Q15761).
T2 construct: containing the full length open reading frame encoding the receptor; expressed in transfected cells
T2 sequence (Q15761 1-445): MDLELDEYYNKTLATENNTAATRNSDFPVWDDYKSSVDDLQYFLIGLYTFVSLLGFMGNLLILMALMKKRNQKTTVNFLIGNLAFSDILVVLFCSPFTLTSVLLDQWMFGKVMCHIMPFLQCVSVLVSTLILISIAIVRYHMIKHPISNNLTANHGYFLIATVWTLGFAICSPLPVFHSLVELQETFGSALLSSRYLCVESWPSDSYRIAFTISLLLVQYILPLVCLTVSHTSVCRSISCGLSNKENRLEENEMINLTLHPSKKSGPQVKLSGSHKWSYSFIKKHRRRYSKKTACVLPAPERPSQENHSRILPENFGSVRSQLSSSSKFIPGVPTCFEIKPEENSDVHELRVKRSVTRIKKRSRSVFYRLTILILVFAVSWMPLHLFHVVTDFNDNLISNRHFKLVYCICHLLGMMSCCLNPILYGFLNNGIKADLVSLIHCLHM
Nature of the assay: [125I]PYY competition binding, human Y5 clone transiently expressed in COS-7 membranes. Particulars: transient COS-7 membranes, ± SEM, read-out: NPY Y5 binding affinity Ki, HUMAN Clone.

In assay [4] the target is T3, rat NPY Y5 receptor (Y861 clone) (Rattus norvegicus, UniProt Q63634).
T3 sequence (Q63634 1-445): T1 sequence (Q63634 1-445 L61P) with P61L
Briefly: [125I]PYY competition binding, rat Y5 Y861 clone transiently expressed in COS-7 membranes. Particulars: transient COS-7 membranes, ± SEM, read-out: NPY Y5 binding affinity Ki, RAT Y861 Clone. Also on record: expressed in transfected cells; host or cells: COS-7 (transient), membranes.
Protocol: Monkey kidney cells (COS-7) were maintained in T-175 cm^2 flasks (NUNC) at 37° C. with 5% CO2 in a humidified atmosphere. Cells were grown in Dulbecco's Modified Eagle Medium (DMEM) supplemented with 2 mM glutamine, 10% fetal bovine serum, 1 mM sodium pyruvate, and antibiotic/antimycotic. Cells at 70% confluency were transfected with Y5 DNA using the Lipofectamine method (GIBCO-BRL). 15 μg DNA and 90 μl Lipofectamine were added to each flask. Media was completely replaced 24 hours post transfection, and membranes were harvested 24 hours later.
The media was removed from each flask of transfected cells, and the cells were washed twice with 20 ml ice-cold phosphate buffered saline. The cells were scraped from the flask in 5 ml of Tris buffer (20 mM Tris-HCl and 5 mM EDTA, pH 7.7), and then transferred to a centrifuge tube. […] Protein concentration was measured using the Bio-Rad kit pursuant to the standard manufacturer's protocol (Biorad Laboratories, Hercules, Calif.),with bovine IgG as the standard. […]
as §1

The next assay concerns the target T4, Rat Y1 (clone) (Rattus norvegicus, UniProt P21555).
T4 sequence (P21555 1-382): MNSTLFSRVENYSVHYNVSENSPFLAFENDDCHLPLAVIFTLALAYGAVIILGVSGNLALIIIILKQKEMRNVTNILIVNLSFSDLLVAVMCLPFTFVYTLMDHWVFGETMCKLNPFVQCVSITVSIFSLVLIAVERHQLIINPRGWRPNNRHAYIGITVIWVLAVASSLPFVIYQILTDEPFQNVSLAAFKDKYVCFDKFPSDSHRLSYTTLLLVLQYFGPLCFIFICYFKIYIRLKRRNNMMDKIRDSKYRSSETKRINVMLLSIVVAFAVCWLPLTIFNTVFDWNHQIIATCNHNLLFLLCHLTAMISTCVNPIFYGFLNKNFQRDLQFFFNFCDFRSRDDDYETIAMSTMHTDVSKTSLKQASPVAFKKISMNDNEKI
Briefly: [125I]PYY binding assay for rat Y1 receptor.

The target of a further assay is T5, Rat Y2 (clone) (Rattus norvegicus, UniProt Q9ERC0).
T5 sequence (Q9ERC0 1-381): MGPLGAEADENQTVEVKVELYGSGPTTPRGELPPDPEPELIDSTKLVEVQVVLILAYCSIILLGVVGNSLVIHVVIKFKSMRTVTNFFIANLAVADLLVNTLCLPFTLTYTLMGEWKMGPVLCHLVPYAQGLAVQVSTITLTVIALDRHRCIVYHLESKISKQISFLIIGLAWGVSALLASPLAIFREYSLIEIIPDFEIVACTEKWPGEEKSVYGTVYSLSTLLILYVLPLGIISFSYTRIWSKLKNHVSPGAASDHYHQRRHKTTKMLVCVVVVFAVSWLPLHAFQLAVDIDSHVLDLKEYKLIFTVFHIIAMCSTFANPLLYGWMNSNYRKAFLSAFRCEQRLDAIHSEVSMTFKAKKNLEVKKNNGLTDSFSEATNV
Briefly: [125I]PYY binding assay for rat Y2 receptor.

The target in assay [5] is T6, human NPY Y5 receptor (human, UniProt Q15761 1-445).
T6 construct: also called HUMAN Clone
T6 sequence: T2 sequence (Q15761 1-445)
Briefly: [125I]PYY competition, membranes of stable 293 clone 293.hY5.sb.8.

Assay [6] deals with T7, rat NPY Y5 receptor, Y861 clone (rat, UniProt Q63634 1-445).
T7 sequence: T1 sequence (Q63634 1-445 L61P) with P61L
Briefly: [125I]PYY competition, membranes of stable 293S clone 293S.Y861.2.

In assay [7] the target is T6, human NPY Y5 receptor. Nature of the assay: [125I]PYY competition, membranes of transiently transfected COS-7 cells; individual experiment.
Protocol: The binding assays were performed on GF/C Millipore (Bedford, Mass.) 96-well plates pretreated with 0.02% polyethylenimine (PEI) for at least 2 hours prior to use. The PEI was aspirated from the plates on a vacuum manifold immediately before the samples were added to the wells. All peptides, tissue and radioligand were diluted with binding buffer (25 mM Tris, 120 mM NaCl, 5 mM KCl, 1.2 MM KH₂PO₄, 2.5 mM CaCl₂, 1.2 mM MgSO₄, 0.1% BSA and 0.5 mg/ml bacitracin, pH 7.4).
After a 2 hour incubation at room temperature with constant mixing, the samples were aspirated on a vacuum manifold. The wells were washed with three 200 μl aliquots of ice-cold binding buffer. The individual wells were punched into 12×75 mm plastic tubes, and counted on a Wallac (Gaithersburg, Md.) gamma counter. Binding data were analyzed using the nonlinear regression curve-fitting program RS/1 (BBN Software Products Corp., Cambridge, Mass.).
Each point is the average value of triplicate determinations from a representative experiment. […] Kᵢ values were calculated from the IC₅₀ values using the Cheng-Prusoff correction, such that Kᵢ=IC₅₀/(1±(L/Kd)), where L is the radioligand concentration and Kd is the dissociation constant.
In assay [8] the target is T7, rat NPY Y5 receptor, Y861 clone. Nature of the assay: cell-based or functional assay.

On to (22-36)NPY [r/h(22-36)NPY], for which, in [1], the Feeding was <3 g/2 h.

For (10-36)NPY [r/h(10-36)NPY], in assay [1], the Feeding is reported as <3 g/2 h.

As to Neuropeptide Y [r/hNPY], the Feeding in assay [1] is recorded as >5 g/2 h.

On to `NC(N)=NCCC[C@@H](NC(=O)C(c1ccccc1)c1ccccc1)C(=O)NCc1ccc(O)cc1` [BIBP3226], for which the Ki (in assay [2]; at human NPY Y5 receptor [3]; in [4]) was > 1 µM each time.

For (Leu^31Pro^34)PYY [h(LP)PYY], in assay [1], the Feeding is recorded as >5 g/2 h.

Take (26-36)NPY [r/h(26-36)NPY]: the Feeding in [1] was <3 g/2 h.

For (2-36)NPY [r/h(2-36)NPY], the Feeding in [1] is reported as >5 g/2 h.

With (18-36)NPY [p(18-36)NPY], in [1], the Feeding was <3 g/2 h.

(Leu^31Pro^34)NPY [p(LP)NPY]: in assay [1], the Feeding is listed as >5 g/2 h and the “Feeding response in rats (in words)” value is “stimulate feeding”.

Take (3-36)NPY [p(3-36)NPY]: the “Affinity for Y1 receptor (in words)” value at Rat Y1 (clone) is given as “much weaker”. At Rat Y2 (clone), the “Affinity for Y2 receptor (in words)” value is “binds preferentially”. Besides, in assay [1], the Feeding was >5 g/2 h and the “Feeding response in rats (in words)” value is on record as “stimulate feeding”.

As for (13-36)PYY (peptide), the Ki (as a rule, the equilibrium dissociation constant of an inhibitor or competing ligand from its target) stood at 0.024 µM with human NPY Y5 receptor [5] and 0.029 µM in assay [6].

For (20-36)NPY [r/h(20-36)NPY], in [1], the Feeding is given as <3 g/2 h and the “Feeding response in rats (in words)” value was “do not elicit feeding”.

On to (Leu^31Pro^34)(3-36)NPY [(LP)(3-36)NPY], for which, in assay [1], the Feeding is recorded as >5 g/2 h and the “Feeding response in rats (in words)” value is reported as “stimulates feeding”.

B1: r(13-36)NPY (peptide, UniProt P07808 42-65, looked up)
peptide: PAEDMARYYSALRHYINLITRQRY
modifications: ends and bridges not checked
notes: range 13-36; it may be a misprint for r(13-36)PYY (rat NPY is elsewhere written r/h)
For the molecule B1, in the assay with human NPY Y5 receptor [7], the Ki is 0.089 µM and 0.065 µM.

With APLEPVYPGDNATPEQMAQYAADLRRYINMLTRPRY (peptide, UniProt P01298 30-65, looked up) [hPP (human pancreatic polypeptide)], in assay [8], the “EC50, forskolin-stimulated adenylate cyclase (cAMP), 293S.Y861.2 cells” value is 0.001 µM.
